# Measurements taken from patent US10941157B2, “Pesticidal compositions and uses thereof” (Gilead Apollo, LLC, priority 2015, dated 2021).
# Like-named read-outs stand apart in the source and are kept apart here.
# Assays:
# Assay type in all cases: cell-based
# Diplodia maydis (Dm) = assay: In vitro pathogen growth inhibition assay, Dm; conditions: Stenocarpella maydis, 48 h
# Method in brief: (§1)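 Value reported is the compound concentration reaching ≥90% growth inhibition, from OD readings at 24 and 48 h after blank subtraction, confirmed visually. Inoculum was spores diluted in 17% V8 medium, except Rs, using 1.5 mm mycelial plugs in ¼ PDB; actual compound concentration corrected via OD600.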
# [1] = test system: Fusarium moniliforme (Fm); assay: In vitro pathogen growth inhibition assay, Fm; conditions: Fusarium verticillioides
# Method in brief: as §1
# Septoria tritici (St) = assay: In vitro pathogen growth inhibition assay, St; conditions: Zymoseptoria tritici, 48 h
# Method in brief: as §1
# [2] = test system: Phytophthora capsici (Pc); assay: In vitro pathogen growth inhibition assay, Pc; conditions: 48 h
# Method in brief: as §1
# Botrtyis cinerea (Bc) = assay: In vitro pathogen growth inhibition assay, Bc; conditions: 48 h
# Method in brief: as §1
# [3] = test system: Fusarium virguliforme (Fv); assay: In vitro pathogen growth inhibition assay, Fv
# Method in brief: as §1
# [4] = test system: Collectotrichum graminicola (Cg); assay: In vitro pathogen growth inhibition assay, Cg; conditions: 48 h
# Method in brief: as §1
# Rhizoctonia solani (Rs) = assay: In vitro pathogen growth inhibition assay, Rs (mycelial plugs); conditions: Rhizoctonia solani, 48 h
# Method in brief: as §1
# [5] = ≥90% growth inhibition, 48 hours, vs 2% DMSO control, read-out: Compound Concentration (ppm) sufficient for ≥90% inhibition of Dm
# [6] = ≥90% growth inhibition, 48 hours, vs 2% DMSO control, read-out: Compound Concentration (ppm) sufficient for ≥90% inhibition of Fm
# [7] = ≥90% growth inhibition, 48 hours, vs 2% DMSO control, read-out: Compound Concentration (ppm) sufficient for ≥90% inhibition of St
# [8] = ≥90% growth inhibition, 48 hours, vs 2% DMSO control, read-out: Compound Concentration (ppm) sufficient for ≥90% inhibition of Pc
# [9] = ≥90% growth inhibition, 48 hours, vs 2% DMSO control, read-out: Compound Concentration (ppm) sufficient for ≥90% inhibition of Bc
# [10] = ≥90% growth inhibition, 48 hours, vs 2% DMSO control, read-out: Compound Concentration (ppm) sufficient for ≥90% inhibition of Fv
# [11] = ≥90% growth inhibition, 48 hours, vs 2% DMSO control, read-out: Compound Concentration (ppm) sufficient for ≥90% inhibition of Cg
# [12] = ≥90% growth inhibition, mycelial plugs, 48 hours, vs 2% DMSO control, read-out: Compound Concentration (ppm) sufficient for ≥90% inhibition of Rs
# [13] = ≥90% inhibition, 48 hours vs 2% DMSO control, read-out: Compound Concentration (ppm) sufficient for ≥90% inhibition of growth, Dm
# [14] = ≥90% inhibition, 48 hours vs 2% DMSO control, read-out: Compound Concentration (ppm) sufficient for ≥90% inhibition of growth, Fm
# [15] = ≥90% inhibition, 48 hours vs 2% DMSO control, read-out: Compound Concentration (ppm) sufficient for ≥90% inhibition of growth, St
# [16] = ≥90% inhibition, 48 hours vs 2% DMSO control, read-out: Compound Concentration (ppm) sufficient for ≥90% inhibition of growth, Pc
# [17] = ≥90% inhibition, 48 hours vs 2% DMSO control, read-out: Compound Concentration (ppm) sufficient for ≥90% inhibition of growth, Bc
# [18] = ≥90% inhibition, 48 hours vs 2% DMSO control, read-out: Compound Concentration (ppm) sufficient for ≥90% inhibition of growth, Fv
# [19] = ≥90% inhibition, 48 hours vs 2% DMSO control, read-out: Compound Concentration (ppm) sufficient for ≥90% inhibition of growth, Cg
# [20] = ≥90% inhibition, mycelial plugs, 48 hours vs 2% DMSO control, read-out: Compound Concentration (ppm) sufficient for ≥90% inhibition of growth, Rs
Compound,IC90 (Diplodia maydis (Dm); [5]) [µg/mL],"IC90 [1, 6] [µg/mL]",IC90 (Septoria tritici (St); [7]) [µg/mL],"IC90 [2, 8] [µg/mL]",IC90 (Botrtyis cinerea (Bc); [9]) [µg/mL],"IC90 [3, 10] [µg/mL]","IC90 [4, 11] [µg/mL]",IC90 (Rhizoctonia solani (Rs); [12]) [µg/mL],IC90 (Diplodia maydis (Dm); [13]) [µg/mL],"IC90 [1, 14] [µg/mL]",IC90 (Septoria tritici (St); [15]) [µg/mL],"IC90 [2, 16] [µg/mL]",IC90 (Botrtyis cinerea (Bc); [17]) [µg/mL],"IC90 [3, 18] [µg/mL]","IC90 [4, 19] [µg/mL]",IC90 (Rhizoctonia solani (Rs); [20]) [µg/mL],also measured
COCCO[C@@H](Cn1c(=O)n([C@@H](C)C(=O)NC(C)C)c(=O)c2c(C)c(-n3nccn3)sc21)c1cc(F)ccc1OC [Compound I-172],10,2,> 50,> 50,2,50,50,10,,,,,,,,,
Cc1c(-n2nccn2)sc2c1c(=O)n(C(C)(C)C(=O)NC(C)C)c(=O)n2C[C@H](OC(C)C)c1cc(F)ccc1OCC1COC1 [Compound I-069],,,,,,,,,0.4,0.08,≥ 50,> 50,0.4,0.4,0.4,≥ 0.4,
C=CCN(C)C(=O)C(C)(C)n1c(=O)c2c(C)c(-n3nccn3)sc2n(C[C@H](OC2CCOCC2)c2cc(F)ccc2OC)c1=O [Compound I-080],,,,,,,,,0.4,0.08,> 50,> 50,0.4,2,0.08,0.08,
COc1ccc(F)cc1[C@H](Cn1c(=O)n(C(C)(C)C(=O)NC(C)C)c(=O)c2c(C)c(-n3cccn3)sc21)OCC#N [Compound I-257],50,0.4,> 50,> 50,2,0.4,2,2,,,,,,,,,
COc1ccc(F)cc1[C@H](Cn1c(=O)n(C(C)(C)C(=O)N2CCCC2)c(=O)c2c(C)c(-n3nccn3)sc21)OC[C@@H](C)O [Compound I-167],2,≥ 0.08,> 50,50,2,2,≥ 0.4,≥ 0.4,,,,,,,,,
COCCO[C@@H](Cn1c(=O)n(C(C)(C)C(=O)NC(C)C)c(=O)c2c(C)c(-n3nccn3)sc21)c1cc(F)ccc1C [Compound I-248],≥ 10,0.4,≥ 10,> 50,2,0.4,2,10,,,,,,,,,
CC(=O)Oc1ccc(F)cc1[C@@H](Cn1c(=O)n(C(C)(C)C(=O)NC(C)C)c(=O)c2c(C)c(-n3nccn3)sc21)OCCC#N [Compound I-334],,,,,,,,,,,,,,,,,"IC90 (Diplodia maydis (Dm); concentration sufficient to ≥90% inhibition of growth, 48 hours vs 2% DMSO control, read-out: Compound Concentration (ppm) for ≥90% inhibition, Dm): > 50 µg/mL; IC90 ([1]; concentration sufficient to ≥90% inhibition of growth, 48 hours vs 2% DMSO control, read-out: Compound Concentration (ppm) for ≥90% inhibition, Fm): 50 µg/mL; IC90 (Septoria tritici (St); concentration sufficient to ≥90% inhibition of growth, 48 hours vs 2% DMSO control, read-out: Compound Concentration (ppm) for ≥90% inhibition, St): > 50 µg/mL; IC90 ([2]; concentration sufficient to ≥90% inhibition of growth, 48 hours vs 2% DMSO control, read-out: Compound Concentration (ppm) for ≥90% inhibition, Pc): > 50 µg/mL; IC90 (Botrtyis cinerea (Bc); concentration sufficient to ≥90% inhibition of growth, 48 hours vs 2% DMSO control, read-out: Compound Concentration (ppm) for ≥90% inhibition, Bc): > 50 µg/mL; IC90 ([3]; concentration sufficient to ≥90% inhibition of growth, 48 hours vs 2% DMSO control, read-out: Compound Concentration (ppm) for ≥90% inhibition, Fv): > 50 µg/mL; IC90 ([4]; concentration sufficient to ≥90% inhibition of growth, 48 hours vs 2% DMSO control, read-out: Compound Concentration (ppm) for ≥90% inhibition, Cg): > 50 µg/mL; IC90 (Rhizoctonia solani (Rs); concentration sufficient to ≥90% inhibition of growth, 48 hours vs 2% DMSO control, read-out: Compound Concentration (ppm) for ≥90% inhibition, Rs): > 50 µg/mL"
CNC(=O)C(C)(C)n1c(=O)c2c(C)c(-n3nccn3)sc2n(C[C@H](OCCC#N)c2cc(F)ccc2OC)c1=O [Compound I-207],≥ 2,0.08,> 50,> 50,2,2,10,0.08,,,,,,,,,
COc1ccc(F)cc1[C@H](Cn1c(=O)n(C(C)(C)C(=O)N2CCCC2)c(=O)c2c(C)c(-n3cccn3)sc21)OCCO [Compound I-159],,,,,,,,,≥ 50,2,> 50,> 50,10,2,≥ 10,≥ 10,
COc1ccc(F)cc1[C@H](Cn1c(=O)n(C(C)(C)C(=O)NC(C)C)c(=O)c2c(C)c(-n3nccn3)sc21)OCC(C)(C)O [Compound I-072],,,,,,,,,0.4,0.08,≥ 2,10,2,0.4,≥ 0.08,≥ 0.4,
COc1ccc(F)cc1[C@H](Cn1c(=O)n(C(C)(C)C(=O)N2CCCC2)c(=O)c2c(C)c(-n3cccn3)sc21)O[C@H]1CC[C@@H](O)CC1 [Compound I-123],,,,,,,,,10,0.4,> 50,> 50,2,2,≥ 10,10,
CCOC(=O)c1sc2c(c1C)c(=O)n([C@@H](C)C(=O)N(C)C(C)C)c(=O)n2C[C@H](OCCC#N)c1cc(F)ccc1OC [Compound I-230],≥ 10,0.4,≥ 10,> 50,2,0.4,10,0.08,,,,,,,,,
Cc1c(-n2nccn2)sc2c1c(=O)n(C(C)(C)C(=O)NC(C)C)c(=O)n2C[C@H](OC(C)C)c1cc(F)ccc1OCC#N [Compound I-070],,,,,,,,,0.4,0.08,≥ 10,> 50,0.4,0.08,2,2,
COc1ccc(F)cc1[C@H](Cn1c(=O)n(C(C)(C)C(=O)N2CC=CC2)c(=O)c2c(C)c(-n3nccn3)sc21)OC1CCOCC1 [Compound I-075],,,,,,,,,0.4,0.08,> 50,> 50,2,0.4,0.4,0.08,
COc1ccc(F)cc1[C@H](Cn1c(=O)n(C(C)(C)C(=O)NC(C)C)c(=O)c2c(C)c(-c3ncco3)sc21)OC1CCC(=O)CC1 [Compound I-024],,,,,,,,,≥ 2,0.08,> 50,> 50,0.4,2,2,0.4,
COc1ccccc1[C@H](Cn1c(=O)n(C(C)(C)C(N)=O)c(=O)c2c(C)c(-n3nccn3)sc21)OC1CCOCC1 [Compound I-031],,,,,,,,,10,0.08,> 50,> 50,2,10,10,10,
CCNC(=O)C(C)(C)n1c(=O)c2c(C)c(-n3nccn3)sc2n(C[C@H](OC(C)=O)c2cc(F)ccc2OC)c1=O [Compound I-324],10,0.4,> 50,> 50,2,2,10,2,,,,,,,,,
Cc1c(-n2nccn2)sc2c1c(=O)n(C(C)(C)C(=O)NC(C)C)c(=O)n2CCc1cc(F)ccc1CCCC#N [Compound I-328],2,0.4,> 50,> 50,2,0.4,10,10,,,,,,,,,
COCCO[C@@H](Cn1c(=O)n(C(C)C(=O)N2CCCC2)c(=O)c2c(C)c(-n3nccn3)sc21)c1cc(F)ccc1OC (stereo partly shown) [Compound I-139],,,,,,,,,10,0.4,50,50,2,0.4,10,2,
COc1ccc(F)cc1[C@H](Cn1c(=O)n(C(C)(C)C(=O)N2CCCC2)c(=O)c2c(C)c(-n3nccn3)sc21)OCCO [Compound I-130],,,,,,,,,≥ 2,0.4,≥ 50,50,2,≥ 0.4,2,≥ 2,
